Data published in PubChem BioAssay (NCI).
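Grown in 96-well plates, cells were treated for 48 hours with each compound at five concentrations. Insufficient inhibition: endpoint recorded as highest concentration tested. TGI: total growth inhibition.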

Legend:
Assay in all cases: DTP human tumour cell line panel, 48 h
OVCAR-8 ovarian = tested on: OVCAR-8 ovarian
HOP-62 NSCLC = tested on: HOP-62 NSCLC
ACHN renal = tested on: ACHN renal
MDA-N = tested on: MDA-N
COLO 205 colon = tested on: COLO 205 colon
RPMI-8226 leukemia = tested on: RPMI-8226 leukemia
MDA-MB-435 = tested on: MDA-MB-435
U251 CNS = tested on: U251 CNS
UACC-62 melanoma = tested on: UACC-62 melanoma
MOLT-4 leukemia = tested on: MOLT-4 leukemia
HL-60(TB) leukemia = tested on: HL-60(TB) leukemia
SNB-75 CNS = tested on: SNB-75 CNS
NCI-H226 lung = tested on: NCI-H226 lung
NCI-H23 lung = tested on: NCI-H23 lung
LOX IMVI melanoma = tested on: LOX IMVI melanoma
A498 renal = tested on: A498 renal
M14 melanoma = tested on: M14 melanoma

COc1ccccc1C1C2=C(COC2=O)Oc2cc3c(cc21)OCO3 (centres undefined)
TGI (OVCAR-8 ovarian): > 56.2 µM
TGI (HOP-62 NSCLC): > 100 µM
TGI (ACHN renal): > 100 µM
TGI (MDA-N): 0.763 µM
TGI (COLO 205 colon): 14.2 µM
TGI (RPMI-8226 leukemia): > 59.2 µM
TGI (MDA-MB-435): 0.947 µM
TGI (U251 CNS): > 100 µM
TGI (UACC-62 melanoma): > 100 µM
TGI (MOLT-4 leukemia): > 100 µM
TGI (HL-60(TB) leukemia): 11.6 µM
TGI (SNB-75 CNS): 21.9 µM
TGI (NCI-H226 lung): > 100 µM
TGI (NCI-H23 lung): > 100 µM
TGI (LOX IMVI melanoma): > 100 µM
TGI (A498 renal): 15.4 µM
TGI (M14 melanoma): > 33.4 µM

CC[C@H](C)[C@H](NC(=O)N(CCC#N)CCN(CCN(C(=O)N[C@@H](Cc1ccccc1)C(=O)OC)c1ccccc1)C(=O)N[C@H](C(=O)OC)C(C)C)C(=O)OC
TGI (OVCAR-8 ovarian): 65.4 µM
TGI (HOP-62 NSCLC): 44.9 µM
TGI (ACHN renal): 26.7 µM
TGI (MDA-N): 31.7 µM
TGI (COLO 205 colon): 52.6 µM
TGI (RPMI-8226 leukemia): 29.1 µM
TGI (MDA-MB-435): 36.3 µM
TGI (U251 CNS): 36.1 µM
TGI (UACC-62 melanoma): 28.6 µM
TGI (MOLT-4 leukemia): 24.7 µM
TGI (HL-60(TB) leukemia): 4.24 µM
TGI (SNB-75 CNS): 43.1 µM
TGI (NCI-H226 lung): 48.8 µM
TGI (NCI-H23 lung): 40.1 µM
TGI (LOX IMVI melanoma): 37.4 µM
TGI (A498 renal): 36.8 µM
TGI (M14 melanoma): 44.8 µM

Cc1ccc(S(=O)(=O)N(CC(O)COc2ccccc2)c2c(F)c(F)cc(F)c2F)cc1 (centres undefined)
TGI (OVCAR-8 ovarian): 49.7 µM
TGI (HOP-62 NSCLC): 52.6 µM
TGI (ACHN renal): 54.1 µM
TGI (MDA-N): 35.7 µM
TGI (COLO 205 colon): 29.1 µM
TGI (RPMI-8226 leukemia): 41.4 µM
TGI (MDA-MB-435): 36.5 µM
TGI (U251 CNS): 48.8 µM
TGI (UACC-62 melanoma): 37.5 µM
TGI (MOLT-4 leukemia): 2.25 µM
TGI (HL-60(TB) leukemia): 19.7 µM
TGI (SNB-75 CNS): 42.6 µM
TGI (NCI-H226 lung): 57.9 µM
TGI (NCI-H23 lung): 43.2 µM
TGI (LOX IMVI melanoma): 37.6 µM
TGI (A498 renal): 39 µM
TGI (M14 melanoma): 61.5 µM

Cc1cc(OCc2nc(N)nc(N)c2-c2ccc(Cl)c(Cl)c2)ccc1[N+](=O)[O-]
TGI (OVCAR-8 ovarian): 34 µM
TGI (HOP-62 NSCLC): 12 µM
TGI (ACHN renal): 2.37 µM
TGI (MDA-N): 22.9 µM
TGI (COLO 205 colon): 18.9 µM
TGI (RPMI-8226 leukemia): > 78.7 µM
TGI (MDA-MB-435): 21.5 µM
TGI (U251 CNS): 12.3 µM
TGI (UACC-62 melanoma): 1.88 µM
TGI (MOLT-4 leukemia): > 27.5 µM
TGI (HL-60(TB) leukemia): 3.56 µM
TGI (SNB-75 CNS): 13.7 µM
TGI (NCI-H226 lung): 28.6 µM
TGI (NCI-H23 lung): 4.79 µM
TGI (LOX IMVI melanoma): 37.8 µM
TGI (A498 renal): 1.3 µM
TGI (M14 melanoma): 10.7 µM

Cc1cccc2c(N)c3cccc(C(=O)NCC[N+](C)(C)Cc4ccc([N+](=O)[O-])n4C)c3nc12
TGI (OVCAR-8 ovarian): 64.1 µM
TGI (HOP-62 NSCLC): 61.7 µM
TGI (ACHN renal): 56.1 µM
TGI (MDA-N): > 81.2 µM
TGI (COLO 205 colon): 66.7 µM
TGI (RPMI-8226 leukemia): 52.5 µM
TGI (MDA-MB-435): > 85.2 µM
TGI (U251 CNS): 63.4 µM
TGI (UACC-62 melanoma): > 79.6 µM
TGI (MOLT-4 leukemia): 25.4 µM
TGI (HL-60(TB) leukemia): 29.2 µM
TGI (SNB-75 CNS): 43.2 µM
TGI (NCI-H226 lung): 53.3 µM
TGI (NCI-H23 lung): > 65.1 µM
TGI (LOX IMVI melanoma): > 64.9 µM
TGI (A498 renal): > 63.1 µM
TGI (M14 melanoma): > 69.6 µM

C[C@@H]1C[C@H]2OC(=O)[C@@]3(C)CCC[C@@](C)([C@@H]23)[C@@]1(O)CCc1ccoc1
TGI (OVCAR-8 ovarian): > 100 µM
TGI (HOP-62 NSCLC): > 100 µM
TGI (ACHN renal): > 100 µM
TGI (MDA-N): > 100 µM
TGI (COLO 205 colon): > 100 µM
TGI (RPMI-8226 leukemia): > 100 µM
TGI (MDA-MB-435): > 100 µM
TGI (U251 CNS): > 100 µM
TGI (UACC-62 melanoma): > 100 µM
TGI (MOLT-4 leukemia): > 94.4 µM
TGI (HL-60(TB) leukemia): > 88.6 µM
TGI (SNB-75 CNS): > 100 µM
TGI (NCI-H226 lung): > 100 µM
TGI (NCI-H23 lung): > 100 µM
TGI (LOX IMVI melanoma): > 100 µM
TGI (A498 renal): > 100 µM
TGI (M14 melanoma): > 100 µM

CN1C(=O)N(C)C2(CCN(CC(CC3OCCO3)c3ccc(F)cc3)CC2)C1=O (centres undefined)
TGI (OVCAR-8 ovarian): > 100 µM
TGI (HOP-62 NSCLC): > 100 µM
TGI (ACHN renal): > 100 µM
TGI (MDA-N): > 100 µM
TGI (COLO 205 colon): > 100 µM
TGI (RPMI-8226 leukemia): > 100 µM
TGI (MDA-MB-435): > 100 µM
TGI (U251 CNS): > 100 µM
TGI (UACC-62 melanoma): > 100 µM
TGI (MOLT-4 leukemia): > 100 µM
TGI (HL-60(TB) leukemia): > 100 µM
TGI (SNB-75 CNS): > 100 µM
TGI (NCI-H226 lung): > 100 µM
TGI (NCI-H23 lung): > 100 µM
TGI (LOX IMVI melanoma): > 100 µM
TGI (A498 renal): > 100 µM
TGI (M14 melanoma): > 100 µM
